Experimental data published in patent US20220324913A1, “ANTIGENIC NEURON SPECIFIC ENOLASE PEPTIDES FOR DIAGNOSING AND TREATING AUTISM” (THE REGENTS OF THE UNIVERSITY OF CALIFORNIA, priority 2019, published 2022).
“Also recorded” adds a separate entry of the source.

Test system: maternal autoantibodies (plasma from mothers of ASD and TD children)
Experiment: NSE 15-mer peptide microarray epitope mapping probed with maternal plasma
Format: binding, human
Conditions: for Specific binding: group whose antibodies recognize the sequence; for ASD + N = 19 (number of positive samples) / ASD + N = 8 (number of positive samples): mothers of ASD children; for ASD + N = 19 (number of positive samples) / TD + N = 10 (number of positive samples) / ASD + N = 8 (number of positive samples) / TD + N = 11 (number of positive samples): positive if FI >200; for TD + N = 10 (number of positive samples) / TD + N = 11 (number of positive samples): mothers of TD children

Substance | Specific binding (ELISA positive samples) | ASD + N = 19 (number of positive samples) (ELISA positive samples) | TD + N = 10 (number of positive samples) (ELISA positive samples) | Specific binding (ELISA negative samples) | also measured
218 (GGFAPNILENSEALE; listed as Homo sapiens) [compound 218] | ASD | 3 | 0 | – | –
252 (DVAASEFYRDGKYDL; listed as Homo sapiens) [compound 252] | ASD | 3 | 0 | – | –
279 (TGDQLGALYQDFVRD; listed as Homo sapiens) [compound 279] | ASD | 5 | 0 | – | –
280 (GDQLGALYQDFVRDY; listed as Homo sapiens) [compound 280] | ASD | 3 | 0 | – | –
281 (DQLGALYQDFVRDYP; listed as Homo sapiens) [compound 281] | ASD | 3 | 0 | – | –
288 (QDFVRDYPVVSIEDP; listed as Homo sapiens) [compound 288] | – | – | – | ASD | ASD + N = 8 (number of positive samples) (ELISA negative samples): 3; TD + N = 11 (number of positive samples) (ELISA negative samples): 0
289 (DFVRDYPVVSIEDPF; listed as Homo sapiens) [compound 289] | ASD | 3 | 0 | – | –
290 (FVRDYPVVSIEDPFD; listed as Homo sapiens) [compound 290] | – | – | – | ASD and TD | ASD + N = 8 (number of positive samples) (ELISA negative samples): 3; TD + N = 11 (number of positive samples) (ELISA negative samples): 1
291 (VRDYPVVSIEDPFDQ; listed as Homo sapiens) [compound 291] | – | – | – | ASD and TD | ASD + N = 8 (number of positive samples) (ELISA negative samples): 4; TD + N = 11 (number of positive samples) (ELISA negative samples): 4
292 (RDYPVVSIEDPFDQD; listed as Homo sapiens) [compound 292] | – | – | – | ASD and TD | ASD + N = 8 (number of positive samples) (ELISA negative samples): 5; TD + N = 11 (number of positive samples) (ELISA negative samples): 2
293 (DYPVVSIEDPFDQDD; listed as Homo sapiens) [compound 293] | – | 6 | 4 | ASD and TD | ASD + N = 8 (number of positive samples) (ELISA negative samples): 6; TD + N = 11 (number of positive samples) (ELISA negative samples): 7
294 (YPVVSIEDPFDQDDW; listed as Homo sapiens) [compound 294] | – | 8 | 4 | ASD and TD | ASD + N = 8 (number of positive samples) (ELISA negative samples): 5; TD + N = 11 (number of positive samples) (ELISA negative samples): 7
295 (PVVSIEDPFDQDDWA; listed as Homo sapiens) [compound 295] | – | 5 | 2 | ASD and TD | ASD + N = 8 (number of positive samples) (ELISA negative samples): 4; TD + N = 11 (number of positive samples) (ELISA negative samples): 3
296 (VVSIEDPFDQDDWAA; listed as Homo sapiens) [compound 296] | – | 4 | 1 | ASD and TD | ASD + N = 8 (number of positive samples) (ELISA negative samples): 4; TD + N = 11 (number of positive samples) (ELISA negative samples): 2
297 (VSIEDPFDQDDWAAW; listed as Homo sapiens) [compound 297] | – | 4 | 1 | ASD and TD | ASD + N = 8 (number of positive samples) (ELISA negative samples): 2; TD + N = 11 (number of positive samples) (ELISA negative samples): 2
298 (SIEDPFDQDDWAAWS; listed as Homo sapiens) [compound 298] | ASD | 4 | 0 | – | –

Substance | Specific binding (ELISA positive samples) | ASD + N = 19 (number of positive samples) (ELISA positive samples) | TD + N = 10 (number of positive samples) (ELISA positive samples) | Specific binding (ELISA negative samples) | also measured
299 (IEDPFDQDDWAAWSK; listed as Homo sapiens) [compound 299] | ASD | 2 | 0 | – | –
407 (RSERLAKYNQLMRIE; listed as Homo sapiens) [compound 407] | ASD | 3 | 0 | – | –
408 (SERLAKYNQLMRIEE; listed as Homo sapiens) [compound 408] | ASD | 6 | 0 | – | –
409 (ERLAKYNQLMRIEEE; listed as Homo sapiens) [compound 409] | ASD | 7 | 0 | – | –
410 (RLAKYNQLMRIEEEL; listed as Homo sapiens) [compound 410] | ASD | 5 | 0 | – | –
411 (LAKYNQLMRIEEELG; listed as Homo sapiens) [compound 411] | ASD | 3 | 0 | – | –
412 (AKYNQLMRIEEELGD; listed as Homo sapiens) [compound 412] | ASD | 3 | 0 | – | –
413 (KYNQLMRIEEELGDE; listed as Homo sapiens) [compound 413] | ASD | 3 | 0 | – | –
416 (QLMRIEEELGDEARF; listed as Homo sapiens) [compound 416] | ASD | 3 | 0 | – | –
DYPVVSIEDPFDQDD (listed as Homo sapiens) [ES 293] | – | – | – | – | Specific binding (ELISA positive samples, listed as SEQ ID NO:7): recognized by plasma from both sample groups; also recorded: recognized by antibodies in both experimental groups
PVVSIEDPFDQDDWA (listed as Homo sapiens) [ES 295] | – | – | – | – | Specific binding (ELISA positive samples, listed as SEQ ID NO:9): recognized by plasma from both sample groups; also recorded: recognized by antibodies in both experimental groups
QDFVRDYPVVSIEDP (listed as Homo sapiens) [ES 288] | – | – | – | ASD-specific | –
VSIEDPFDQDDWAAW (listed as Homo sapiens) [ES 297] | – | – | – | – | Specific binding (ELISA positive samples, listed as SEQ ID NO:11): recognized by plasma from both sample groups; also recorded: recognized by antibodies in both experimental groups
VVSIEDPFDQDDWAA (listed as Homo sapiens) [ES 296] | – | – | – | – | Specific binding (ELISA positive samples, listed as SEQ ID NO:10): recognized by plasma from both sample groups; also recorded: recognized by antibodies in both experimental groups
YPVVSIEDPFDQDDW (listed as Homo sapiens) [ES 294] | – | – | – | – | Specific binding (ELISA positive samples, listed as SEQ ID NO:8): recognized by plasma from both sample groups; also recorded: recognized by antibodies in both experimental groups
